These results are taken from patent publication US20090012119A1, “FLUOROALKYLPYRROLIDINE DERIVATIVE” (DAIICHI SANKYO COMPANY LIMITED, priority 2005, published 2009).

Molecules are shown by their SMILES. Converted amounts (≈) assume the structure as drawn. Bounds are passed on as bounds.

One series concerns S. maltophilia, IID-1275. Kind of series: Antibacterial activity (MIC), standard method of Japanese Society of Chemotherapy. The note with it: Stenotrophomonas maltophilia, IID1275. In kind it is cell-based. From the text:
(§1) MIC value is also shown for levofloxacin (LVFX), ciprofloxacin (CPFX), and Comparative Compound (compound of Example 1 in the Patent Document 1) for comparison with the MIC value of the compound of the present invention.

In the next series the test system is Pr. mirabilis, IFO-3849. The series is described as above. It is filed as cell-based. The note with it: Proteus mirabilis, IFO3849.
Source text: as §1

The next series concerns E. coli, NIHJ. Described as above. In kind it is cell-based. The note with it: Escherichia coli.
Source text: as §1

The subject of another series is Str. pyogenes, G-36. Described as above. In kind it is cell-based. The note with it: Streptococcus pyogenes, G36.
Source text: as §1

In series [1] the test system is Str. faecalis, ATCC-19433. The description is as above. It is filed as cell-based. The note with it: Enterococcus faecalis, ATCC19433.
Source text: as §1

Another series concerns S. flexneri, 2A 5503. Described as above. In kind it is cell-based. The note with it: Shigella flexneri, 2A5503.
Source text: as §1

In a further series the test system is Ser. marcescens, 10100. The series is described as above. It is filed as cell-based. The note with it: Serratia marcescens.
Source text: as §1

The test system of the next series is S. aureus, 209P. Described as above. In kind it is cell-based. Particulars: Staphylococcus aureus.
Source text: as §1

The subject of another series is S. pneumoniae, J24. Described as above. It is filed as cell-based. The note with it: Streptococcus pneumoniae, J24: penicillin resistant pneumococcus (moderate resistance).
Source text: as §1

The subject of a further series is S. epidermidis, 56500. Described as above. In kind it is cell-based. Particulars: Staphylococcus epidermidis.
Source text: as §1

The next series concerns Ps. aeruginosa, 32104. The series is described as above. In kind it is cell-based. Particulars: Pseudomonas aeruginosa.
Source text: as §1

The subject of another series is S. aureus, 870307. The description is as above. It is filed as cell-based. The note with it: 870307: levofloxacin-resistant methicillin-resistant Staphylococcus aureus.
Source text: as §1

The test system of another series is Ps. aeruginosa, 32121. The series is described as above. Particulars: Pseudomonas aeruginosa. It is filed as cell-based.
Source text: as §1

In the next series the test system is Pr. vulgaris, 08601. The series is described as above. In kind it is cell-based. Particulars: Proteus vulgaris.
Source text: as §1

Series [2] relates to 6 week old male Slc:ddY mice. Kind of series: Single dose toxicity test, intravenous injection. In kind it is in vivo. The method, then:
The compounds of the present invention were evaluated for their toxicity in a single dose toxicity test by administering the compounds to 6 week old male Slc:ddY mice. The compound was diluted with 0.1 mol/l NaOH/physiological saline, and filtered through Millex GS filter (0.22 μm) for sterilization. The compound was administered at a rate of 10 ml/kg and 0.2 ml/min in a single dose by intravenous injection. The compound of Example 1 in the Patent Document 1 was used for the Comparative Compound as in the case of Test Example 1.

For `O=C(O)c1cn(C2CC2)c2cc(N3CCNCC3)c(F)cc2c1=O` [CPFX, ciprofloxacin, reference compound], the MIC (commonly the smallest concentration in the dilution series that meets the test's criterion for growth inhibition) in the series with S. maltophilia, IID-1275 is 0.78 µg/mL (≈ 2.35 µM); against Pr. mirabilis, IFO-3849, 0.012 µg/mL (≈ 0.0362 µM); against E. coli, NIHJ, ≤ 0.003 µg/mL; with Str. pyogenes, G-36, 1.56 µg/mL (≈ 4.71 µM); in series [1] it was 0.78 µg/mL (≈ 2.35 µM); in the series on S. flexneri, 2A 5503, 0.006 µg/mL (≈ 0.0181 µM). The MIC is 0.025 µg/mL (≈ 0.0754 µM) with Ser. marcescens, 10100; 0.1 µg/mL (≈ 0.302 µM) against S. aureus, 209P; 0.1 µg/mL (≈ 0.302 µM) in the series with S. pneumoniae, J24; 0.2 µg/mL (≈ 0.604 µM) in the series with S. epidermidis, 56500; 0.05 µg/mL (≈ 0.151 µM) in the series on Ps. aeruginosa, 32104; > 6.25 µg/mL in the series on S. aureus, 870307. Moreover, the MIC against Ps. aeruginosa, 32121 is 0.025 µg/mL (≈ 0.0754 µM); in the series on Pr. vulgaris, 08601, ≤ 0.003 µg/mL.
Take `Cc1c(N2C[C@H](CF)[C@H](N)C2)c(F)cc2c(=O)c(C(=O)O)cn(C3CC3)c12` [Compound No. 1, 7-[(3S,4S)-3-amino-4-fluoromethyl-1-pyrrolidinyl]-1-cyclopropyl-6-fluoro-1,4-dihydro-8-methyl-4-oxoquinoline-3-carboxylic acid]: the melting point (usually the temperature of the solid-liquid transition) lay within 160 to 165 °C. Further, the MIC against S. maltophilia, IID-1275 stood at 0.1 µg/mL (≈ 0.265 µM). Moreover, in the series with Pr. mirabilis, IFO-3849, 0.012 µg/mL (≈ 0.0318 µM) was the least that counted as inhibitory (MIC). Besides, the MIC in the series with E. coli, NIHJ is ≤ 0.003 µg/mL. In addition, inhibition of growth in the series with Str. pyogenes, G-36 (MIC) required 0.1 µg/mL (≈ 0.265 µM). In series [1], this compound came in with an MIC of 0.05 µg/mL (≈ 0.132 µM). For the same compound, the MIC in the series on S. flexneri, 2A 5503 is ≤ 0.003 µg/mL. In the series with Ser. marcescens, 10100, this compound had an MIC of 0.025 µg/mL (≈ 0.0662 µM). For the same compound, inhibition of growth against S. aureus, 209P (MIC) required 0.012 µg/mL (≈ 0.0318 µM). The compound also had an MIC in the series with S. pneumoniae, J24 of 0.025 µg/mL (≈ 0.0662 µM). This compound had an MIC against S. epidermidis, 56500 of 0.025 µg/mL (≈ 0.0662 µM). This compound had a minimum inhibitory concentration (MIC) in the series with Ps. aeruginosa, 32104 of 0.05 µg/mL (≈ 0.132 µM). The compound also registered an MIC against S. aureus, 870307 of 0.2 µg/mL (≈ 0.53 µM). In the series with Ps. aeruginosa, 32121, this compound yielded an MIC of 0.025 µg/mL (≈ 0.0662 µM). Besides, the MIC against Pr. vulgaris, 08601 was ≤ 0.003 µg/mL.
On to `Cc1c(N2C[C@H](CF)[C@H](N)C2)c(F)cc2c(=O)c(C(=O)O)cn([C@@H]3C[C@@H]3F)c12` [Compound No. 3, 7-[(3S,4S)-3-amino-4-fluoromethyl-1-pyrrolidinyl]-6-fluoro-1-[(2S,1R)-2-fluorocyclopropyl]-1,4-dihydro-8-methyl-4-oxoquinoline-3-carboxylic acid], for which the MIC against S. maltophilia, IID-1275 was 0.1 µg/mL (≈ 0.253 µM); against Pr. mirabilis, IFO-3849 it was 0.006 µg/mL (≈ 0.0152 µM); with E. coli, NIHJ, 0.006 µg/mL (≈ 0.0152 µM); in the series with Str. pyogenes, G-36 it was 0.05 µg/mL (≈ 0.126 µM); in series [1], 0.1 µg/mL (≈ 0.253 µM); against S. flexneri, 2A 5503, ≤ 0.003 µg/mL. Further, the MIC was found to be 0.025 µg/mL (≈ 0.0632 µM) in the series with Ser. marcescens, 10100; 0.006 µg/mL (≈ 0.0152 µM) in the series on S. aureus, 209P; 0.025 µg/mL (≈ 0.0632 µM) in the series on S. pneumoniae, J24; 0.025 µg/mL (≈ 0.0632 µM) against S. epidermidis, 56500; 0.05 µg/mL (≈ 0.126 µM) with Ps. aeruginosa, 32104; 0.39 µg/mL (≈ 0.986 µM) against S. aureus, 870307. Moreover, the MIC with Ps. aeruginosa, 32121 is 0.025 µg/mL (≈ 0.0632 µM); with Pr. vulgaris, 08601, ≤ 0.003 µg/mL. The “Number of dead mice/Total” value is on record as 0/5 in [2] (Dose 100 mg/kg) and 0/3♭ in [2] (Dose 150 mg/kg).
Turning to `Cc1c(N2C[C@H](CF)[C@H](N)C2)ccc2c(=O)c(C(=O)O)cn(C3CC3)c12` [Compound No. 2, 7-[(3S,4S)-3-amino-4-fluoromethyl-1-pyrrolidinyl]-1-cyclopropyl-1,4-dihydro-8-methyl-4-oxoquinoline-3-carboxylic acid], the melting point fell in the range of 203 to 205 °C. In the series on S. maltophilia, IID-1275, this compound registered a minimum inhibitory concentration (MIC) of 0.2 µg/mL (≈ 0.556 µM). This compound also had a minimum inhibitory concentration (MIC) against Pr. mirabilis, IFO-3849 of 0.05 µg/mL (≈ 0.139 µM). In the series on E. coli, NIHJ, the MIC is ≤ 0.003 µg/mL. The compound further displayed a minimum inhibitory concentration (MIC) against Str. pyogenes, G-36 of 0.2 µg/mL (≈ 0.556 µM). This compound also yielded an MIC in series [1] of 0.2 µg/mL (≈ 0.556 µM). Moreover, in the series with S. flexneri, 2A 5503, the MIC worked out at 0.006 µg/mL (≈ 0.0167 µM). Also, the MIC against Ser. marcescens, 10100 is 0.05 µg/mL (≈ 0.139 µM). In the series with S. aureus, 209P, the minimal inhibitory concentration (MIC) was found to be 0.025 µg/mL (≈ 0.0696 µM). For the same compound, the minimum inhibitory concentration (MIC) against S. pneumoniae, J24 is 0.1 µg/mL (≈ 0.278 µM). Moreover, the MIC against S. epidermidis, 56500 is 0.1 µg/mL (≈ 0.278 µM). In addition, in the series on Ps. aeruginosa, 32104, 0.1 µg/mL (≈ 0.278 µM) was the least that counted as inhibitory (MIC). In the series on S. aureus, 870307, the lowest concentration to inhibit growth (MIC) was 0.78 µg/mL (≈ 2.17 µM). Also, the minimum inhibitory concentration (MIC) against Ps. aeruginosa, 32121 amounted to 0.025 µg/mL (≈ 0.0696 µM). This compound displayed an MIC in the series on Pr. vulgaris, 08601 of 0.006 µg/mL (≈ 0.0167 µM).
